These results are taken from patent publication US9422240B2, “Partially saturated nitrogen-containing heterocyclic compound” (TAISHO PHARMACEUTICAL CO., LTD, priority 2012, dated 2016).

The target in this assay is human PHD2 (Homo sapiens (Human), UniProt Q9GZT9). Nature of the assay: Test 2: human PHD2 inhibitory activity, fluorescence polarization assay of HIF-1α peptide proline hydroxylation. Conditions: for inhibition at 1 µM: read-out: Percent inhibition (% at 1 μM); for IC50: human PHD2, fluorescence polarization assay, 20-min incubation at 30° C. It is filed as biochemical. How it is done:
(1) Expression and Preparation of Human PHD2
A registered sequence of human PHD2 (NM_022051) was introduced into pcDNA3.1/Hygro(+) vector (Invitrogen), and the sequence was verified. […] The suspension of disrupted cells was centrifuged at 4° C. and 100,000×g for 30 minutes and the supernatant was recovered as a cell lysate.
(2) Measurement of Human PHD2 Inhibitory Activity
The activity of human PHD2 enzyme was measured with a substrate which is a 19-residue partial peptide based on the sequence of HIF-1α; specifically, the hydroxylation of a proline residue in the peptide was measured by FP (Fluorescence Polarization).
A test compound and the substrate solution were preliminarily added onto 384-well plates and reaction was initiated by adding a human PHD2 enzyme solution (40 ng/well). After 20-min incubation at 30° C., an EDTA-containing quench solution was added and the amount of the proline residues hydroxylated via binding to an added HIF—OH antibody solution was quantified by fluorescence polarization.
The fluorescence polarization of each well was measured and the human PHD2 inhibitory activity of each test compound was calculated on the basis of the values for the test compound-free group.

[1] abbreviates: test compound's concentration 1 μM, Test 2, fluorescence polarization assay.

Each structure is given as a SMILES string.

Chain of human PHD2 (Q9GZT9 whole entry): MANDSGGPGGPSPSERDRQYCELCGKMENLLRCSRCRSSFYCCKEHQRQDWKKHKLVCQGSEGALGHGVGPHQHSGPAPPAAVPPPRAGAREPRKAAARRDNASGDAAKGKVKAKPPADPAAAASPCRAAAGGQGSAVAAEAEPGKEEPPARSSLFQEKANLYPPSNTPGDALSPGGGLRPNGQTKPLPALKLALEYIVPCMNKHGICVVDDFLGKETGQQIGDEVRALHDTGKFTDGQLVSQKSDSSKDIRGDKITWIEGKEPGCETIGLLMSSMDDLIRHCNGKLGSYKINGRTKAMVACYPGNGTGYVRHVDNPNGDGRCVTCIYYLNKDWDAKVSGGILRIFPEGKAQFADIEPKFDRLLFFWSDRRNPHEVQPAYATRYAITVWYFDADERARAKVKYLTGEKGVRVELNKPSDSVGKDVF

What is called inhibition is the drop in the measured response relative to a control, in per cent. For `O=C(O)CNC(=O)C1=C(O)CCN(Cc2ccc(OCc3ccccc3)c(F)c2)C1=O` [Ex. 1-374], the inhibition at 1 µM under setting [1] amounted to 96%. Same read-out and setting: the result for `O=C(O)CNC(=O)C1=C(O)CCN(Cc2ccc(OCc3ccc(OC(F)(F)F)cc3)cc2)C1=O` [Ex. 1-375] reads 85%. The IC50 is the concentration needed to halve the response being measured. With `CCc1ccc(Oc2ccc(CN3CCC(O)=C(C(=O)NCC(=O)O)C3=O)cn2)cc1` [Ex. 1-376], the half-inhibitory concentration (IC50) turned out to be 22 nM. The inhibition at 1 µM under setting [1] worked out at 100%. For `CCCc1ccc(Oc2ccc(CN3CCC(O)=C(C(=O)NCC(=O)O)C3=O)cn2)cc1` [Ex. 1-377] the same measures were 15 nM and 96%. The like results for `CC(C)c1ccc(Oc2ccc(CN3CCC(O)=C(C(=O)NCC(=O)O)C3=O)cn2)cc1` [Ex. 1-378] were, in that order, 14 nM and 98%. In the case of `Cc1cc(CN2CCC(O)=C(C(=O)NCC(=O)O)C2=O)ccc1OCC(F)(F)F` [Ex. 1-379], the inhibition at 1 µM under setting [1] is 84%.

On to `O=C(O)CNC(=O)C1=C(O)CCN(Cc2ccc(OCc3ccccc3)nc2)C1=O` [Ex. 1-380], for which the inhibition at 1 µM under setting [1] came to 92%. As to `Cc1cc(CN2CCC(O)=C(C(=O)NCC(=O)O)C2=O)ccc1OCc1ccccc1` [Ex. 1-381], the inhibition at 1 µM under setting [1] came out at 92%. The same measure, in the same setting: the result for `O=C(O)CNC(=O)C1=C(O)CCN(Cc2ccc(OCCC(F)(F)F)cc2)C1=O` [Ex. 1-382] reads 83%. On to `Cc1cc(CN2CCC(O)=C(C(=O)NCC(=O)O)C2=O)ccc1OCCC(F)(F)F` [Ex. 1-383], for which the inhibition at 1 µM under setting [1] stood at 83%. For `O=C(O)CNC(=O)C1=C(O)CCN(Cc2ccc(OCCC(F)(F)F)c(F)c2)C1=O` [Ex. 1-384], the inhibition at 1 µM under setting [1] worked out at 82%. For `Cc1ccc(Oc2cnc(CN3CCC(O)=C(C(=O)NCC(=O)O)C3=O)cn2)cc1` [Ex. 1-385], the IC50 is 54 nM. Further, under setting [1], the inhibition at 1 µM was 93%.

`Cc1ccc(Oc2ccc(CN3CCC(O)=C(C(=O)NCC(=O)O)C3=O)cc2)cc1C` [Ex. 1-386] came in with a concentration for half-maximal inhibition (IC50) of 48 nM. Further, under setting [1], the inhibition at 1 µM worked out at 92%. As to `Cc1ccc(COc2ccc(CN3CCC(O)=C(C(=O)NCC(=O)O)C3=O)cc2F)cc1` [Ex. 1-387], the inhibition at 1 µM under setting [1] turned out to be 93%. Take `Cc1cc(CN2CCC(O)=C(C(=O)NCC(=O)O)C2=O)ccc1OCc1ccc(F)cc1` [Ex. 1-388]: under setting [1], the inhibition at 1 µM was determined as 92%.

Take `Cc1cc(CN2CCC(O)=C(C(=O)NCC(=O)O)C2=O)ccc1OCc1ccc(OC(F)(F)F)cc1` [Ex. 1-389]: the inhibition at 1 µM under setting [1] came to 69%. For `O=C(O)CNC(=O)C1=C(O)CCN(CC2CCC(Oc3ccccc3)CC2)C1=O` (stereo not drawn) [Ex. 1-390], the inhibition at 1 µM under setting [1] worked out at 89%. For `O=C(O)CNC(=O)C1=C(O)CCN(CC2CCC(Oc3ccccc3)CC2)C1=O` (stereo not drawn) [Ex. 1-391], the “Percent inhibition (% at 1 μM)” value under setting [1] came to 82%. In the case of `Cc1ccc(Oc2ncc(CN3CCC(O)=C(C(=O)NCC(=O)O)C3=O)cc2Cl)cc1` [Ex. 1-392], the IC50 is 26 nM. For the same molecule, the inhibition at 1 µM under setting [1] came to 98%.

`Cc1ccc(Oc2ncc(CN3CCC(O)=C(C(=O)NCC(=O)O)C3=O)cc2F)cc1` [Ex. 1-393] registered a concentration for half-maximal inhibition (IC50) of 32 nM. For the same molecule, the inhibition at 1 µM under setting [1] came out at 98%. Regarding `Cc1nc(COc2ccc(CN3CCC(O)=C(C(=O)NCC(=O)O)C3=O)cc2Cl)c(C)o1` [Ex. 1-394], the inhibition at 1 µM under setting [1] was determined as 83%. On the same count and under the same terms, the result for `O=C(O)CNC(=O)C1=C(O)CCN(C[C@@H]2CC[C@@H](c3ccccc3)C2)C1=O` [Ex. 1-395] reads 90%; that for `CC1(COc2ccc(CN3CCC(O)=C(C(=O)NCC(=O)O)C3=O)cn2)CC1` [Ex. 1-396], 89%; that for `Cc1ccc(COc2ccc(CN3CCC(O)=C(C(=O)NCC(=O)O)C3=O)cc2)cn1` [Ex. 1-398], 91%.

On to `O=C(O)CNC(=O)C1=C(O)CCN(CC2(c3ccccc3)CC2)C1=O` [Ex. 1-399], for which the inhibition at 1 µM under setting [1] amounted to 55%. Same read-out and setting: the result for `Cc1ncccc1COc1ccc(CN2CCC(O)=C(C(=O)NCC(=O)O)C2=O)cc1` [Ex. 1-401] reads 90%.

For `O=C(O)CNC(=O)C1=C(O)CCN(C[C@H]2CC[C@H](Oc3ccc(F)cc3)CC2)C1=O` [Ex. 1-402], the inhibition at 1 µM under setting [1] is 109%. Same read-out and setting: the result for `O=C(O)CNC(=O)C1=C(O)CCN(C[C@H]2CC[C@H](Oc3ccc(C(F)(F)F)cc3)CC2)C1=O` [Ex. 1-403] reads 102%. `O=C(O)CNC(=O)C1=C(O)CCN(Cc2ccc(Oc3ccc(C4CC4)cn3)cc2)C1=O` [Ex. 1-404]: the concentration for half-maximal inhibition (IC50) came out at 56 nM. Also, the inhibition at 1 µM under setting [1] was found to be 96%.

For the molecule `O=C(O)CNC(=O)C1=C(O)CCN(Cc2ccc(OCc3ccc(Cl)cn3)cc2)C1=O` [Ex. 1-405], the inhibition at 1 µM under setting [1] was 90%.

In the case of `Cc1cnc(COc2ccc(CN3CCC(O)=C(C(=O)NCC(=O)O)C3=O)cc2)s1` [Ex. 1-406], the inhibition at 1 µM under setting [1] was found to be 86%.

`O=C(O)CNC(=O)C1=C(O)CCN(Cc2ccc(OCc3cn4ccsc4n3)cc2)C1=O` [Ex. 1-407]: under setting [1], the inhibition at 1 µM was 85%.

Regarding `Cc1ccc(Oc2ncc(CN3CCC(O)=C(C(=O)NCC(=O)O)C3=O)cn2)cc1` [Ex. 1-408], the IC50 was found to be 72 nM. For the same molecule, the inhibition at 1 µM under setting [1] was 91%.

`Cc1cc(CN2CCC(O)=C(C(=O)NCC(=O)O)C2=O)cnc1Oc1ccc(Cl)cc1` [Ex. 1-409] returned an IC50 of 25 nM. For the same molecule, under setting [1], the inhibition at 1 µM was found to be 98%. Turning to `Cc1cc(CN2CCC(O)=C(C(=O)NCC(=O)O)C2=O)cnc1OCC(F)(F)F` [Ex. 1-410], the inhibition at 1 µM under setting [1] stood at 82%. For the molecule `Cc1cc(CN2CCC(O)=C(C(=O)NCC(=O)O)C2=O)cnc1OCCC1CC1` [Ex. 1-411], under setting [1], the inhibition at 1 µM was 90%.

Take `O=C(O)CNC(=O)C1=C(O)CCN(C[C@H]2CC[C@H](Oc3ccc(F)cn3)CC2)C1=O` [Ex. 1-412]: under setting [1], the inhibition at 1 µM stood at 87%.

Consider `CC(C)(CN1CCC(O)=C(C(=O)NCC(=O)O)C1=O)c1ccc(Cl)cc1` [Ex. 1-413], for which the inhibition at 1 µM under setting [1] was determined as 75%.

In the case of `O=C(O)CNC(=O)C1=C(O)CCN(Cc2ccc(-c3ccc(C4CC4)nc3)cc2)C1=O` [Ex. 1-414], under setting [1], the inhibition at 1 µM came out at 96%. Same read-out and setting: the result for `Cc1ccc(OCc2ccc(CN3CCC(O)=C(C(=O)NCC(=O)O)C3=O)cc2)cn1` [Ex. 1-415] reads 94%. Same read-out and setting: the result for `O=C(O)CNC(=O)C1=C(O)CCN(Cc2ccc(COc3ccccc3)cc2)C1=O` [Ex. 1-416] reads 95%. Still for that read-out and setting: the result for `Cc1ccc(OCc2ccc(CN3CCC(O)=C(C(=O)NCC(=O)O)C3=O)cc2)cc1` [Ex. 1-417] reads 99%; that for `Cc1ccc(COc2ccc(CN3CCC(O)=C(C(=O)NCC(=O)O)C3=O)cn2)cc1` [Ex. 1-418], 98%.

Consider `O=C(O)CNC(=O)C1=C(O)CCN(Cc2ccc(OCc3ccc(Cl)cc3)nc2)C1=O` [Ex. 1-419], for which the inhibition at 1 µM under setting [1] is 98%. On to `O=C(O)CNC(=O)C1=C(O)CCN(Cc2cnc(OCCC3CC3)c(Cl)c2)C1=O` [Ex. 1-420], for which the inhibition at 1 µM under setting [1] worked out at 92%. Same read-out and setting: the result for `COc1cccc(-c2ccc(CN3CCC(O)=C(C(=O)NCC(=O)O)C3=O)cc2)n1` [Ex. 1-421] reads 99%; that for `O=C(O)CNC(=O)C1=C(O)CCN(Cc2ccc(-c3ccc(Cl)cn3)cc2)C1=O` [Ex. 1-422], 100%. On the same count and under the same terms, the result for `O=C(O)CNC(=O)C1=C(O)CCN(Cc2ccc(COc3ccc(C(F)(F)F)nc3)cc2)C1=O` [Ex. 1-423] reads 96%; that for `O=C(O)CNC(=O)C1=C(O)CCN(Cc2ccc(COc3ccc(C(F)(F)F)cn3)cc2)C1=O` [Ex. 1-424], 97%; that for `COc1cccnc1-c1ccc(CN2CCC(O)=C(C(=O)NCC(=O)O)C2=O)cc1` [Ex. 1-425], 90%.

`COc1ccc(-c2ccc(CN3CCC(O)=C(C(=O)NCC(=O)O)C3=O)cc2)nc1` [Ex. 1-426]: under setting [1], the inhibition at 1 µM is 88%.

Consider `O=C(O)CNC(=O)C1=C(O)CCN(CC2CCC(OCc3ccc(Cl)cc3)CC2)C1=O` (stereo not drawn) [Ex. 1-427], for which the inhibition at 1 µM under setting [1] was found to be 95%.

`O=C(O)CNC(=O)C1=C(O)CCN(C[C@H]2CC[C@H](Oc3ccc(Cl)cc3)CC2)C1=O` [Ex. 1-428]: the inhibition at 1 µM under setting [1] was determined as 100%. Same read-out and setting: the result for `O=C(O)CNC(=O)C1=C(O)CCN(C[C@H]2CC[C@H](OCc3ccc(Cl)cc3)CC2)C1=O` [Ex. 1-429] reads 96%.

Consider `Cc1ccc(O[C@H]2CC[C@H](CN3CCC(O)=C(C(=O)NCC(=O)O)C3=O)CC2)cc1` [Ex. 1-430], for which the inhibition at 1 µM under setting [1] stood at 95%. The same measure, in the same setting: the result for `CCc1ccc(O[C@H]2CC[C@H](CN3CCC(O)=C(C(=O)NCC(=O)O)C3=O)CC2)cc1` [Ex. 1-431] reads 99%. The same measure, in the same setting: the result for `O=C(O)CNC(=O)C1=C(O)CCN(C[C@H]2CC[C@H](Oc3ccc(Cl)cn3)CC2)C1=O` [Ex. 1-432] reads 93%. As for `O=C(O)CNC(=O)C1=C(O)CCN(C[C@H]2CC[C@@H](Oc3ccc(F)cn3)CC2)C1=O` [Ex. 1-433], the inhibition at 1 µM under setting [1] turned out to be 76%. On the same count and under the same terms, the result for `O=C(O)CNC(=O)C1=C(O)CCN(C[C@H]2CC[C@@H](Oc3ccc(F)cc3)CC2)C1=O` [Ex. 1-434] reads 85%; that for `Cc1ccc(O[C@H]2CC[C@H](CN3CCC(O)=C(C(=O)NCC(=O)O)C3=O)CC2)nc1` [Ex. 1-435], 87%. As to `COc1ccnc(-c2ccc(CN3CCC(O)=C(C(=O)NCC(=O)O)C3=O)cc2)c1` [Ex. 1-436], the inhibition at 1 µM under setting [1] was found to be 85%. On the same count and under the same terms, the result for `O=C(O)CNC(=O)C1=C(O)CCN(C[C@H]2CC[C@H](Oc3ccc(C(F)(F)F)cn3)CC2)C1=O` [Ex. 1-437] reads 92%.
